Laboratory results published in US12280059B2, “Acyl-CoA synthetase 4 (ACSL4) inhibitory compound” (CONSEJO NACIONAL DE INVESTIGACIONES CIENTÍFICAS Y TÉCNICAS …, priority 2019, dated 2025).

Legend:
PC-3 cells = experiment: Cell proliferation inhibition in prostate cancer cell line, BrdU incorporation assay; type: cell-based; conditions: Homo sapiens, 96 h incubation
Experimental: ACSL4 inhibition was also assessed through proliferation inhibition in the Pc-3 cell line. PC-3 human prostate cancer cell line was generously provided by Dr. Susana Nowicky and validated by ATCC Cell Line Authentication Service as 100% matching to ATCC cell line CRL-1435 (PC-3).
The medium was then changed to serum-free medium. After 24 h, the cells were switched to 10% FBS-supplemented D-MEM medium and incubated with i) ACSL4 inhibitor A, ii) ACSL4 inhibitor B or iii) rosiglitazone for 96 h.

MDA-MB-231 cells [1] = experiment: Cell proliferation inhibition in breast cancer cell line, BrdU incorporation assay; type: cell-based; conditions: Homo sapiens, 96 h incubation
Source text: In this experiment, ACSL4 inhibition was studied through proliferation inhibition of MDA-MB-231 cells. Human breast cancer cell line MDA-MB-231 was generously provided by Dr. Vasilios Papadoupoulus (Research Institute of the McGill University Health Centre, Montreal, Canada) and obtained from the Lombardi Comprehensive Cancer Center (Georgetown University Medical Center, Washington D.C. USA), validated by ATCC Cell Line Authentication Service as 100% matching to ATCC cell line HTB-26 (MDA-MB-231).
The medium was then changed to serum-free medium.
After 24 h, the cells were switched to 10% FBS-supplemented D-MEM medium and incubated with i) ACSL4 inhibitor A, ii) ACSL4 inhibitor B or iii) rosiglitazone for 96 h.

MDA-MB-231 cells [2] = experiment: Migration assay (wound healing); type: cell-based, human; conditions: for concentration at which differences in wound area were evident: wound healing, 12 h after injury
Experimental: Cellular migration was measured by the wound healing assay. Cells (7×10^5 cells per well) were seeded in six-well plates. Cells were kept in complete (10% FBS) medium. Cell monolayer was wounded with a plastic tip across the monolayer cells. Wound closures were photographed by a phase contrast microscopy (40×) in the time point 4, 8 and 12 h after scraping. The width of the wound was determined with the Image Pro-Plus program.
For the wound healing assay, cells were incubated with either vehicle (control), the compound of the invention (inhibitor A) (50 μM) and Rosiglitazone (200 μM). At the specified time points, the distance between the wound edges was measured using Image-Pro Plus software. Results are shown in FIG. 4A-D. Data represent the mean±SD of three independent experiments.

MA-10 Leydig cells = experiment: Steroidogenesis assay, progesterone production in cAMP-stimulated MA-10 Leydig cells; type: cell-based, mouse
Experimental: (§1) In the present example, ACSL4 inhibitor effects on steroid production were tested by stimulating MA 10 Leydig and Y1 adrenal cells with cAMP (0.5 mM) for 1 hour and assessing progesterone levels. MA-10 mouse Leydig tumor cells were generously provided by Dr. Mario Ascoli (University of Iowa, Iowa City, Iowa) and cultured in Waymouth MB/752 medium supplemented with 15% horse serum and antibiotics at 37° C. and 5% CO2 as previously described. The culture medium was replaced with serum-free Waymouth medium before experiments.

ACSL4 [3] = target: T1, ACSL4 (Homo sapiens, UniProt O60488); experiment: 3H-arachidonic acid incorporation into MDA-MB-231 cells (ACSL4 activity); type: cell-based; conditions: serum stimulated
T1 construct: evaluated in MDA-MB-231 cells, in which ACSL4 activity plays a key role in tumor biology; endogenous in cells; host or cells: MDA-MB-231
Experimental: The effects of the ACSL4 inhibitor of the invention were evaluated in MDA-MB-231 cells, in which ACSL4 activity plays a key role in tumor biology.
(§2) ACSL4 activity was determined by measuring the transformation of arachidonic acid (AA) into enzyme product arachidonoyl-CoA (AA CoA), through ^3H-AA incorporation expressed as CPM/10^6 cells×10^−3 with results showing significant ACSL4 inhibition and a consequent significant reduction in AA CoA levels.
ACSL4 activity was stimulated with serum in tumoral cells.

ACSL4 [4] = target: T2, ACSL4 (Mus musculus, UniProt Q9QUJ7); experiment: 3H-arachidonic acid incorporation into MA-10 Leydig cells (ACSL4 activity); type: cell-based; conditions: cAMP stimulated
T2 construct: evaluated in MA-10 Leydig cells, in which ACSL4 activity plays a key role in steroids synthesis; endogenous in cells; host or cells: MA-10 mouse Leydig tumor cells
Experimental: The effects of the ACSL4 inhibitor of the invention were evaluated in MA-10 Leydig cells, in which ACSL4 activity plays a key role in steroids synthesis.
as §2
ACSL4 activity was stimulated with cAMP.

MDA-MB231 cells = experiment: Tumor growth in chick embryo chorioallantoic membrane (CAM) assay; type: in vivo; conditions: 100 μM, in ovo, Kruskal-Wallis p<0.0001
Experimental: In this experiment, the in vivo CAM assay platform of IPATIMUP was used to test the effect of inhibitor A to inhibit tumor growth in vivo. The CAMP is a preclinical in vivo model for drug screening.
Chicken eggs in the early phase of breeding are between in vitro and in vivo systems and provide a vascular test environment not only to study angiogenesis but also to study tumorigenesis. Since the lymphoid system is not fully developed until late stages of incubation, the chick embryo serves as a naturally immunodeficient host capable of sustaining grafted tissues and cells without species-specific restrictions.
As previously described, breast cancer MDA-MB231 cell line was used as a cell model to assess tumor cell growth. The effects of the compound were compared to those of the vehicle (DMEM).
The test compound, at the 10 μM and 100 μM, were inoculated together with 0.5×10^6 MDA-MB231 cells into a total of 53 eggs (distributed in two independent experiments), at embryonic development day (EDD) 10. The effects of the compound A were compared to those of the vehicle (DMEM).
Xenografted cells/tumors were treated in ovo on EDD12 and the experiment ended at EDD 14. At the endpoint, CAMs were fixed (with paraformaldehyde), excised from the embryo and photographed ex ovo.
The pictures were used to determine the number of neo vessels growing radially towards the inoculation site. […]

steroid synthesis = experiment: Steroidogenesis in male mice stimulated with hCG; type: in vivo, BALB/c mice
Experimental: Thirty-day-old male BALB/c mice were treated with inhibitor A (10-100 μM) i.p at a dose of 50 ul/mice. After 3 hours the animal received a single s.c injection of human Chorionic Gonadotrophin (300 U/mice). After 3 hours the animal were sacrificed and assessed for testosterone, pregnenolone and progesterone levels FIG. 13 A, corticosterone FIG. 13 B and steroids in Pc-3 cell FIG. 13 C.

Y1 adrenal cells = experiment: Steroidogenesis assay, progesterone production in cAMP-stimulated Y1 adrenal cells; type: cell-based, mouse; conditions: cAMP 0.5 mM, 1 hour
Experimental: as §1
Murine Y1 adrenocortical tumor cells were generously provided by Dr B Schimmer (University of Toronto, Toronto, Canada). Methods for the culture of Y1 mouse adrenal tumor cells (American Type Culture Collection, Rockville, MD, USA) have been published elsewhere (Schimmer 1979). Cells were maintained at 37 C in growth medium (HAM F10) containing fetal bovine (2·5%) and horse (12·5%) sera.

Solubility = type: physicochemical; conditions: compared with compound B

T2 sequence (Q9QUJ7 whole entry): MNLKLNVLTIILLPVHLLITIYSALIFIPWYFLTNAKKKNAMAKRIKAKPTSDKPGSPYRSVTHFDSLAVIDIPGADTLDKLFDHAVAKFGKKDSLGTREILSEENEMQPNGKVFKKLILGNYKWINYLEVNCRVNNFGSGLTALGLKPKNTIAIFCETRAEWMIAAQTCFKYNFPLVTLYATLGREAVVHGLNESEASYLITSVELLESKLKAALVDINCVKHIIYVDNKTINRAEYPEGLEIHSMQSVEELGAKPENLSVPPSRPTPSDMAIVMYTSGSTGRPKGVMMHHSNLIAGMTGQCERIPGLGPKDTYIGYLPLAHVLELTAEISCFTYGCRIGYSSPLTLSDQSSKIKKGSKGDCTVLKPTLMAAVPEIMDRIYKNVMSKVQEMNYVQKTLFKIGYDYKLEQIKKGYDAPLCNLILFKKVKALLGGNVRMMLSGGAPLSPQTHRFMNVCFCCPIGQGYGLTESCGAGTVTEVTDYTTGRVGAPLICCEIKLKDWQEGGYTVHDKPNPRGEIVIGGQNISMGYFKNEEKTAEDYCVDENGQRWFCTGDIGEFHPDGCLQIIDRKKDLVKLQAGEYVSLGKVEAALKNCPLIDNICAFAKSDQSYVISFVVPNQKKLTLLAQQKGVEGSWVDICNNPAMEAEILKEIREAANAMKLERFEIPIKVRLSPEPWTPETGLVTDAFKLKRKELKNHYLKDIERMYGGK
T1 sequence (O60488 whole entry): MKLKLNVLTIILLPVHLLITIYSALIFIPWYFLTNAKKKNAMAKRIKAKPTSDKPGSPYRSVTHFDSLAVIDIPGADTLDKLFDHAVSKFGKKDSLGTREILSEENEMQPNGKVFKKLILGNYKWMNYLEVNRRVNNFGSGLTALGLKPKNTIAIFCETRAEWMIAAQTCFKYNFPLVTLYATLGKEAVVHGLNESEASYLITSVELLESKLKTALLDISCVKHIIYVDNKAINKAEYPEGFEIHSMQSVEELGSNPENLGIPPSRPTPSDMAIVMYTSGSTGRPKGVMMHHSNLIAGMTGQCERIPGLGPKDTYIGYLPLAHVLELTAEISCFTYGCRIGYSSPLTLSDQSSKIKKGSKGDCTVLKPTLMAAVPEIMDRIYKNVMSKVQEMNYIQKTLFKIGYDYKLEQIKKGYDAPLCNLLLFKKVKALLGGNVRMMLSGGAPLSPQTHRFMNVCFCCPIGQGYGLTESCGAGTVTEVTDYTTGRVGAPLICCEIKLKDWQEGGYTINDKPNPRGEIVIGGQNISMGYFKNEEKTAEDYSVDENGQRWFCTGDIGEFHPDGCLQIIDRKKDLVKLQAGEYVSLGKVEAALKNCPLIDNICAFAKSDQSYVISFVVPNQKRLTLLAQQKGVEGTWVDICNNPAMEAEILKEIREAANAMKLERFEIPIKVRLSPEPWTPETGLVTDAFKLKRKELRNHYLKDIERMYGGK

| Structure (SMILES) | IC50 (PC-3 cells) | IC50 (MDA-MB-231 cells [1]) | concentration at which differences in wound area were evident (MDA-MB-231 cells [2]) | inhibition of progesterone synthesis (MA-10 Leydig cells) | release of progesterone (MA-10 Leydig cells; 10 μM, control 3.26 ng/ml) | concentrations for inhibiting ACSL4 activity (3H-AA incorporation) (ACSL4 [3]) | concentrations for inhibiting ACSL4 activity (3H-AA incorporation) (ACSL4 [4]) | tumor growth (tumor area) versus vehicle (MDA-MB231 cells) | minimal concentration significantly inhibiting steroid synthesis (steroid synthesis; i.p. 50 ul/mice, hCG stimulation (Example 12)) | dose at which there was already response in inhibiting steroidogenesis (steroid synthesis; in vivo experiment in mice, FIG. 13 A) | minimal concentration significantly inhibiting steroid synthesis (Y1 adrenal cells) | minimal concentration significantly inhibiting steroid synthesis (MA-10 Leydig cells; cAMP 0.5 mM, 1 hour, progesterone) | inhibition of cell migration (wound healing) (MDA-MB-231 cells [2]; MDA-MB-231 cells, 50 μM) | solubility (Solubility) |
| --- | --- | --- | --- | --- | --- | --- | --- | --- | --- | --- | --- | --- | --- | --- |
| CN(CCOc1ccc(CC2SC(=O)NC2=O)cc1)c1ccccn1 (centres unmarked) [Rosiglitazone, reference compound] | 100 µM | 180 µM | 200 µM | – | – | – | – | – | – | – | – | – | – | – |
| CCC/C=C/C/C=C/C=C/C=N/NN=O [Triacsin C] | – | – | – | failed to inhibit progesterone synthesis | 46.5 ng/mL | – | – | – | – | – | – | – | – | – |
| CC(=O)NC1=Nc2nc3ccccc3n2C(c2cn(-c3ccccc3)nc2-c2ccc(C)o2)N1 (centres unmarked) [inhibitor A, N-(4-(3-(5-methylfuran-2-yl)-1-phenyl-1H-pyrazol-4-yl)-3,4-dihydrobenzo[4,5]imidazo[1,2-a][1,3,5]triazin-2-yl)acetamide] | 27 µM | 23 µM | 50 µM | – | – | lower than those required for rosiglitazone | lower than those required for rosiglitazone | Significant statistical differences | 25 µM | 10 µM | 5 µM | 5 µM | succeeded in inhibiting the migration | higher than the solubility of compound B |
| Cc1ccc(-c2nn(-c3ccccc3)cc2C2NC(N)=Nc3nc4ccccc4n32)o1 (centres unmarked) [inhibitor B, 4-(3-(5-methylfuran-2-yl)-1-phenyl-1H-pyrazol-4-yl)-3,4-dihydrobenzo[4,5]imidazo[1,2-a][1,3,5]triazin-2-amine] | 48 µM | 45 µM | 100 µM | – | – | – | – | – | – | – | – | – | – | – |
